Results as given in PubChem BioAssay AID330 (DTP/NCI, 2004).
Several values for one entry are separate records, joined by “and”; a condition that tells them apart may be missing. Equal entries are not always repeated. Toxic doses and inconclusive results are not listed. Rule for the calls: active = survival T/C of 150% or more; inactive = T/C below 125% in these data.

Tested on: P388 leukemia ip, CD2F1 mice, survival T/C
Experiment: NCI In Vivo Anticancer Drug Screen. Data for tumor model P388 Leukemia (intraperitoneal) in CD2F1 (CDF1) mice
Details: endpoint: median survival time, higher = longer survival
Summary of the method: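 Mice carrying the transplanted tumor received test compound or vehicle. Survival was recorded in each group, and the value is the treated-group measurement divided by that of the vehicle-treated control group.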

[1] = dose: 50.0 mg/kg/injection, schedule: Q01DX009 (ip), vehicle: Klucel (hydroxypropylcellulose) (HPC)
[2] = dose: 100.0 mg/kg/injection, schedule: Q01DX009 (ip), vehicle: Klucel (hydroxypropylcellulose) (HPC)
[3] = dose: 12.5 mg/kg/injection, schedule: Q01DX005 (ip), vehicle: saline with Tween-80
[4] = dose: 25.0 mg/kg/injection, schedule: Q01DX005 (ip), vehicle: saline with Tween-80
[5] = dose: 50.0 mg/kg/injection, schedule: Q01DX005 (ip), vehicle: saline with Tween-80
[6] = dose: 200.0 mg/kg/injection, schedule: Q01DX009 (ip), vehicle: Klucel (hydroxypropylcellulose) (HPC)
[7] = dose: 100.0 mg/kg/injection, schedule: Q01DX005 (ip), vehicle: saline with Tween-80
[8] = dose: 200.0 mg/kg/injection, schedule: Q01DX005 (ip), vehicle: saline with Tween-80
[9] = dose: 60.0 mg/kg/injection, schedule: Q01DX005 (ip), vehicle: saline with Tween-80
[10] = dose: 120.0 mg/kg/injection, schedule: Q01DX005 (ip), vehicle: saline with Tween-80
[11] = dose: 240.0 mg/kg/injection, schedule: Q01DX005 (ip), vehicle: saline with Tween-80
[12] = dose: 50.0 mg/kg/injection, schedule: Q01DX005 (ip), vehicle: Klucel (hydroxypropylcellulose) (HPC)
[13] = dose: 50.0 mg/kg/injection, schedule: Q01DX009 (ip), vehicle: saline with Tween-80

Measured: T/C

CC(=O)C(Cl)c1ccccc1Cl (stereo not given)
inactive: dose: 25.0 mg/kg/injection, schedule: Q01DX009 (ip), vehicle: Klucel (hydroxypropylcellulose) (HPC) 111 % of control | [1] 107 % of control and 113 % of control | [2] 109 % of control

CCN(CC)Cc1cc(Nc2nc(/C=C/c3ccc(Cl)cc3)nc(Cl)c2-c2ccc(Cl)cc2)ccc1O
inactive: dose: 25.0 mg/kg/injection, schedule: Q01DX001 (ip), vehicle: suspension in saline 107 % of control | dose: 50.0 mg/kg/injection, schedule: Q01DX001 (ip), vehicle: suspension in saline 111 % of control | dose: 50.0 mg/kg/injection, schedule: Q01DX005 (ip), vehicle: saline 111 % of control | dose: 100.0 mg/kg/injection, schedule: Q01DX001 (ip), vehicle: saline 103 % of control | dose: 100.0 mg/kg/injection, schedule: Q01DX001 (ip), vehicle: suspension in saline 100 % of control and 108 % of control | dose: 100.0 mg/kg/injection, schedule: Q01DX005 (ip), vehicle: saline 116 % of control | dose: 200.0 mg/kg/injection, schedule: Q01DX001 (ip), vehicle: saline 103 % of control | dose: 200.0 mg/kg/injection, schedule: Q01DX001 (ip), vehicle: suspension in saline 108 % of control and 97 % of control | dose: 200.0 mg/kg/injection, schedule: Q01DX005 (ip), vehicle: saline 103 % of control | dose: 400.0 mg/kg/injection, schedule: Q01DX001 (ip), vehicle: saline 103 % of control | dose: 400.0 mg/kg/injection, schedule: Q01DX001 (ip), vehicle: suspension in saline 108 % of control and 87 % of control

N#CNc1nnnn1-c1ccccc1 (tested in a mixture with another compound)
inactive: dose: 100.0 mg/kg/injection, schedule: Q04DX003 (ip), vehicle: Klucel (hydroxypropylcellulose) (HPC) 96 % of control | dose: 200.0 mg/kg/injection, schedule: Q04DX003 (ip), vehicle: Klucel (hydroxypropylcellulose) (HPC) 92 % of control | dose: 400.0 mg/kg/injection, schedule: Q04DX003 (ip), vehicle: Klucel (hydroxypropylcellulose) (HPC) 98 % of control

O=NN(CCCl)C(=O)N1CCCOC1=O
inactive: dose: 12.5 mg/kg/injection, schedule: Q01DX001 (ip), vehicle: saline with Tween-80 115 % of control and 121 % of control | dose: 25.0 mg/kg/injection, schedule: Q01DX001 (ip), vehicle: saline with Tween-80 116 % of control

CS(=O)(=O)Nc1ccc(NC(=O)c2c3ccccc3nc3ccccc23)cc1
inactive: [3] 103 % of control | [4] 99 % of control | [5] 109 % of control and 110 % of control

CCCCCCCC(=O)C(=O)c1ccc(O)c(C)c1O
inactive: [1] 109 % of control | [2] 102 % of control | [6] 106 % of control

CCOCCOc1nc(C)cc(C)c1C#N
inactive: [5] 102 % of control | [7] 105 % of control | [8] 96 % of control

O=C1CN2CCN3CC(=O)NC(=O)[C@H]3[C@@H]2C(=O)N1
inactive: [9] 96 % of control | [10] 96 % of control | [11] 98 % of control

COC(=O)C1(c2ccc(OC)cc2)NC(c2ccccc2)C2C(=O)N(c3ccc(OC)cc3)C(=O)C21 (stereo not given)
inactive: [9] 95 % of control | [10] 96 % of control | [11] 89 % of control

CC1(C)CC(=O)C2=C(C1)NC1=C(C(=O)CC(C)(C)C1)C2c1cccs1
inactive: [5] 98 % of control | [7] 98 % of control | [8] 93 % of control

C/C=C/C/C=C/CCC(=O)C1OC1C(N)=O (stereo not given)
inactive: dose: 8.0 mg/kg/injection, schedule: Q01DX009 (ip), vehicle: Klucel (hydroxypropylcellulose) (HPC) 93 % of control | dose: 16.0 mg/kg/injection, schedule: Q01DX009 (ip), vehicle: Klucel (hydroxypropylcellulose) (HPC) 93 % of control | dose: 32.0 mg/kg/injection, schedule: Q01DX009 (ip), vehicle: Klucel (hydroxypropylcellulose) (HPC) 102 % of control | dose: 64.0 mg/kg/injection, schedule: Q01DX009 (ip), vehicle: Klucel (hydroxypropylcellulose) (HPC) 93 % of control

COc1ccc([N+](=O)[O-])cc1NC(=O)C1C(=O)C(=O)N(c2cc([N+](=O)[O-])ccc2OC)C1=O (stereo not given)
inactive: [1] 100 % of control | [2] 100 % of control | [6] 115 % of control

Nc1ccc(C(=O)NO)cc1
inactive: dose: 25.0 mg/kg/injection, schedule: Q01DX009 (ip), vehicle: suspension in saline 99 % of control | dose: 50.0 mg/kg/injection, schedule: Q01DX009 (ip), vehicle: suspension in saline 99 % of control | dose: 100.0 mg/kg/injection, schedule: Q01DX009 (ip), vehicle: suspension in saline 96 % of control | dose: 200.0 mg/kg/injection, schedule: Q01DX009 (ip), vehicle: suspension in saline 109 % of control

CSc1nc(NC(C)C)nc(NC(C)C)n1
inactive: dose: 50.0 mg/kg/injection, schedule: Q04DX003 (ip), vehicle: saline with Tween-80 100 % of control | dose: 100.0 mg/kg/injection, schedule: Q04DX003 (ip), vehicle: saline with Tween-80 91 % of control

COc1ccc(C(C)c2cc(N=NC(N)=O)c(OC)cc2O)cc1 (stereo not given)
inactive: [3] 94 % of control | [4] 90 % of control | [5] 90 % of control

COCCCCCC(=O)OC
inactive: dose: 60.0 mg/kg/injection, schedule: Q01DX005 (ip), vehicle: saline 101 % of control | dose: 120.0 mg/kg/injection, schedule: Q01DX005 (ip), vehicle: saline 100 % of control | dose: 240.0 mg/kg/injection, schedule: Q01DX005 (ip), vehicle: saline 104 % of control

COC(=O)c1nc(=S)[nH]c(C(=O)OC)c1C(=O)c1c(C)[nH]c2ccccc12
inactive: dose: 60.0 mg/kg/injection, schedule: Q01DX005 (ip), vehicle: Klucel (hydroxypropylcellulose) (HPC) 98 % of control | dose: 120.0 mg/kg/injection, schedule: Q01DX005 (ip), vehicle: Klucel (hydroxypropylcellulose) (HPC) 96 % of control | dose: 240.0 mg/kg/injection, schedule: Q01DX005 (ip), vehicle: Klucel (hydroxypropylcellulose) (HPC) 95 % of control

Nc1nc(-c2ccccc2)nc2sc3c(c12)CCCC3
inactive: [12] 104 % of control | dose: 100.0 mg/kg/injection, schedule: Q01DX005 (ip), vehicle: Klucel (hydroxypropylcellulose) (HPC) 106 % of control | dose: 200.0 mg/kg/injection, schedule: Q01DX005 (ip), vehicle: Klucel (hydroxypropylcellulose) (HPC) 103 % of control

CN(C)c1ccc(Cc2ccc(N(C)C)nc2)cn1
inactive: [5] 109 % of control | [7] 110 % of control

CNc1ccc([N+](=O)[O-])cc1C(=O)OC
inactive: dose: 12.5 mg/kg/injection, schedule: Q01DX009 (ip), vehicle: saline with Tween-80 99 % of control | dose: 25.0 mg/kg/injection, schedule: Q01DX009 (ip), vehicle: saline with Tween-80 98 % of control | [13] 102 % of control

COCn1ncnc1C(=O)c1ccccc1
inactive: [13] 97 % of control | dose: 100.0 mg/kg/injection, schedule: Q01DX009 (ip), vehicle: saline with Tween-80 98 % of control | dose: 200.0 mg/kg/injection, schedule: Q01DX009 (ip), vehicle: saline with Tween-80 92 % of control

CCOC(=O)C1=C(C)N[C@H](c2ccccc2[N+](=O)[O-])N[C@H]1c1ccccc1[N+](=O)[O-]
inactive: dose: 12.5 mg/kg/injection, schedule: Q01DX005 (ip), vehicle: Klucel (hydroxypropylcellulose) (HPC) 105 % of control | dose: 25.0 mg/kg/injection, schedule: Q01DX005 (ip), vehicle: Klucel (hydroxypropylcellulose) (HPC) 94 % of control | [12] 88 % of control and 92 % of control

ClCCN(CCCl)c1ccc(/C=N/Nc2c3ccccc3nc3ccccc23)cc1
inactive: dose: 6.25 mg/kg/injection, schedule: Q01DX009 (ip), vehicle: DMSO 88 % of control | dose: 12.5 mg/kg/injection, schedule: Q01DX009 (ip), vehicle: DMSO 90 % of control
